We go through 1 molecule from ChEMBL document CHEMBL4706752 (ACS Med Chem Lett, 2021).

Data set [1] addresses T1, Nuclear receptor ROR-alpha (Homo sapiens, UniProt P35398).
T1 sequence (P35398 whole entry): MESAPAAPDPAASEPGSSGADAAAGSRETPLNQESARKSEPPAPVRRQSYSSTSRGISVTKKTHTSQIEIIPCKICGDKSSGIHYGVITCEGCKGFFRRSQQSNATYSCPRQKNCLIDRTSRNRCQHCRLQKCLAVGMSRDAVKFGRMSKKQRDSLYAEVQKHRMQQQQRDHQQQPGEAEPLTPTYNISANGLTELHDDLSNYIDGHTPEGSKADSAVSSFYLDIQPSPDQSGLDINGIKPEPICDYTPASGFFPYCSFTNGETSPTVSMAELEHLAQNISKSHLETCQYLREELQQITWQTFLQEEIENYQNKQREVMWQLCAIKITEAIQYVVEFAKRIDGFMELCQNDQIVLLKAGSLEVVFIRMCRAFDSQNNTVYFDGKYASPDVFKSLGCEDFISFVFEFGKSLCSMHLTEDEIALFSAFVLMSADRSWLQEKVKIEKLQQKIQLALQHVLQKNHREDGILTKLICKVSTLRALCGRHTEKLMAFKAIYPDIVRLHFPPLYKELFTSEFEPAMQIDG
Kind of data set: Inhibition of RORalpha (unknown origin).

In data set [2] the target is T2, Nuclear receptor subfamily 1 group I member 2 (Homo sapiens, UniProt O75469).
T2 sequence (O75469 whole entry): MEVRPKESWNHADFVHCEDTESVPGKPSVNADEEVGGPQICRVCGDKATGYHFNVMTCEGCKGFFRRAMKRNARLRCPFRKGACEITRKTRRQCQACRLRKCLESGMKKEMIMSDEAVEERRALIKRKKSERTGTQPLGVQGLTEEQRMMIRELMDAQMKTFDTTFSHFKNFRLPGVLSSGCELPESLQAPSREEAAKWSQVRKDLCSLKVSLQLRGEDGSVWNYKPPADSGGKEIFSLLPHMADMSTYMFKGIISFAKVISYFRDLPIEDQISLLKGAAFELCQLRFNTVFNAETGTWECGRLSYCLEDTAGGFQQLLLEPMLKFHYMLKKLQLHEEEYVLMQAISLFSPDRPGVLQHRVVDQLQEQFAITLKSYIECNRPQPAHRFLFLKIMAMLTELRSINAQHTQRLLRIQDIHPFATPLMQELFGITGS
Kind of data set: Inhibition of PXR (unknown origin).

Data set [3] is described as follows: Decrease in LCN2 gene expression in C57BL/6 mouse model of IL-23 induced acanthosis model of psoriasis at 20 mg/kg, po BID for 10 days by RT-PCR analysis. It counts as functional. The settings on record: C57BL/6, po, 240 h, time 10 day.
A short description of data set [4]: Tmax in Sprague-Dawley rat at 4 mg/kg, po. The settings on record: in vivo. It counts as ADME, organism-based.
Data set [5] can be described thus: Decrease in IL-17a gene expression in C57BL/6 mouse model of IL-23 induced acanthosis model of psoriasis at 10 mg/kg, po BID for 10 days by RT-PCR analysis. It counts as functional. Particulars: C57BL/6, po, 240 h, time 10 day.
Data set [6] in a line: Cmax in cynomolgus monkey at 2 mg/kg, po. It counts as ADME, organism-based, Macaca fascicularis. Details: route oral, dose 2 mg/kg. Particulars: in vivo.
Data set [7] is described as follows: Half life in cynomolgus monkey at 1 mg/kg, iv. It counts as ADME, organism-based, Macaca fascicularis. The settings on record: in vivo.
The target in the next data set is Cytochrome P450 2C9 (Homo sapiens, UniProt P11712). Kind of data set: Inhibition of CYP2C9 (unknown origin). It counts as ADME.
A short description of data set [8]: Tmax in dog at 2 mg/kg, po. It counts as ADME, organism-based, Canis lupus familiaris. The settings on record: in vivo.
Data set [9] in a line: Clearance in Balb/c mouse at 2 mg/kg, iv. It counts as ADME, organism-based. The settings on record: in vivo.
Data set [10] relates to Mus musculus. Kind of data set: Antiinflammatory activity in DBA/1J mouse model of collagen-induced arthritis assessed as reduction in plasma IL-6 level at 5 mg/kg, po dosed twice daily for 21 days (reference value: 80 +/- 6 pg/ml). It counts as functional. Particulars: time 21 day.
Data set [11] has as its system Mus musculus. Kind of data set: Antiinflammatory activity in DBA/1J mouse model of collagen-induced arthritis assessed as reduction in clinical score at 10 mg/kg, po dosed twice daily for 21 days measured on day 51. It counts as functional. Particulars: 504 h, time 21 day.
Data set [12] in a line: Metabolic stability in human liver microsomes assessed as compound remaining after 10 mins. Particulars: read-out: Stabilty. It counts as ADME, Microsome.
The nature of data set [13]: Apparent permeability across apical to basolateral membrane in human Caco2 cells. It counts as ADME, cell-based. The settings on record: Caco-2. (Caco-2 cells form a polarised layer with tight junctions and transporters.)
The nature of data set [14]: Oral bioavailability in cynomolgus monkey at 2 mg/kg. The settings on record: in vivo. It counts as ADME, organism-based, Macaca fascicularis.
A short description of data set [15]: Clearance in dog at 1 mg/kg, iv. It counts as ADME, organism-based, Canis lupus familiaris. Particulars: in vivo.
Data set [16] can be described thus: AUC in Balb/c mouse at 4 mg/kg, po. It counts as ADME, organism-based. Details: dose 4 mg/kg. Particulars: in vivo.
A short description of data set [17]: Decrease in IL-17a gene expression in C57BL/6 mouse model of IL-23 induced acanthosis model of psoriasis at 5 mg/kg, po BID for 10 days by RT-PCR analysis. The settings on record: C57BL/6, po, 240 h, time 10 day. It counts as functional.
Data set [18] in a line: Unbound volume of distribution at steady state in Balb/c mouse at 2 mg/kg, iv. It counts as ADME, organism-based. Particulars: in vivo.
The test system of data set [19] is Mus musculus. Kind of data set: Suppression of ear thickness in C57BL/6 mouse model of IL-23 induced acanthosis model of psoriasis assessed as AUC of %change in ear thickness at 20 mg/kg, po BID for 10 days measured every other day. It counts as functional. The settings on record: time 10 day.
Data set [20] in a line: Oral bioavailability in Sprague-Dawley rat at 4 mg/kg. It counts as ADME, organism-based. The settings on record: in vivo.
Data set [21] is described as follows: AUC in cynomolgus monkey at 1 mg/kg, iv. Particulars: in vivo. It counts as ADME, organism-based, Macaca fascicularis. Also noted: dose 1 mg/kg.
Data set [22] addresses T3, Nuclear receptor ROR-beta (Homo sapiens, UniProt Q92753).
T3 sequence (Q92753 whole entry): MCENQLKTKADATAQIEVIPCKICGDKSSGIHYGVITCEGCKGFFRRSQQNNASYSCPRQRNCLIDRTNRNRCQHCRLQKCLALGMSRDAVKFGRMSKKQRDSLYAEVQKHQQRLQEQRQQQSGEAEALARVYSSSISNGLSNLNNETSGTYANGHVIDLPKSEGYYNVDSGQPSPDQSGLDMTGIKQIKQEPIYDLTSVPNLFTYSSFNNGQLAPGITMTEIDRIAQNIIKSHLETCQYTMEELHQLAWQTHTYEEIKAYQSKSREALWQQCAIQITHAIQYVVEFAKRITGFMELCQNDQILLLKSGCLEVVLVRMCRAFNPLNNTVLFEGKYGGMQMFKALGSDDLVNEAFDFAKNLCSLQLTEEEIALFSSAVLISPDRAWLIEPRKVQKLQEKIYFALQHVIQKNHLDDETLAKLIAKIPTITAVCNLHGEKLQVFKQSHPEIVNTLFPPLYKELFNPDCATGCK
Kind of data set: Inhibition of RORbeta (unknown origin).

Data set [23] has as its system Mus musculus. Kind of data set: Antiinflammatory activity in DBA/1J mouse model of collagen-induced arthritis assessed as reduction in clinical score at 5 mg/kg, po dosed twice daily for 21 days measured on day 51. It counts as functional. Particulars: 504 h, time 21 day.

Each structure is given as a SMILES string.

Sequence of Cytochrome P450 2C9 (P11712 whole entry): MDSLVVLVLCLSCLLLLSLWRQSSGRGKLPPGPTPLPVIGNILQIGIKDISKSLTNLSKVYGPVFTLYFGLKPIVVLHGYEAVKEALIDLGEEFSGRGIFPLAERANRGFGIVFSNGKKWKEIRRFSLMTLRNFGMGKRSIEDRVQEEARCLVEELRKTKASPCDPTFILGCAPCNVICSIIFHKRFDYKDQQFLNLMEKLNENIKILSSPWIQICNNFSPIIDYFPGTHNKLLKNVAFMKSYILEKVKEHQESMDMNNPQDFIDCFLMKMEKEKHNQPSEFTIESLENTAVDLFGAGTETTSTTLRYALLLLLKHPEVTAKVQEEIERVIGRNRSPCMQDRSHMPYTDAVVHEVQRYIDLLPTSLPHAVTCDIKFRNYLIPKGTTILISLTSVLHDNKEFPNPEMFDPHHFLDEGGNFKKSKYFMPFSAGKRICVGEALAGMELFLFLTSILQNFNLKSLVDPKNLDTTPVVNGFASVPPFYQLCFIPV

One may read the EC50 as the concentration at which the effect is half-maximal. For orientation: inhibition in vivo means the share of the control response that was lost under treatment. What is called Tmax is the time from dosing to the highest level. Broadly, the Cmax is the peak of the concentration-time curve. A word on the half-life: it is the time in which the quantity being followed falls by half. The IC50 is the concentration that inhibits the measured activity by half. The term clearance denotes a measure of how efficiently the substance is removed, as volume per time. The term Papp A→B denotes how fast a substance crosses the layer from the apical side. One may read the bioavailability as the share of a dose that reaches the circulation, judged against a reference dose that is usually intravenous. The AUC is the area under the concentration-time curve, a measure of exposure. As for `C[C@@](O)(CS(C)(=O)=O)C(=O)N[C@@H]1CC[C@@]2(S(=O)(=O)c3ccc(F)cc3)c3ccc(C(F)(C(F)(F)F)C(F)(F)F)nc3CC[C@@H]12`, the EC50 in data set [1], in data set [2] and in [22] was greater than 10 µM throughout. This molecule also yielded an inhibition in vivo at 20 mg/kg in data set [3] of 82.9%. The Tmax turned out to be 4 h in data set [4] and 7 h in [8]. The inhibition in vivo at 10 mg/kg in data set [5] was 73.8%; with Mus musculus [11] it was 64%. The maximum concentration (Cmax) in data set [6] came to 600 nM. Also, the half-life in data set [7] was 12 h. In addition, the IC50 against Cytochrome P450 2C9 was greater than 20 µM. The figures for the clearance in [9] and in data set [15] were 2.1 mL/min/kg and 0.22 mL/min/kg, respectively. Besides, the Activity in the data set with Mus musculus [10] is 26 pg/mL; in the data set with Mus musculus [19] it was 77.2%. Also, the remaining at 10 min in data set [12] worked out at 89%. In addition, the Papp A→B in [13] turned out to be 11 ×10⁻⁶ cm/s. The bioavailability in [14] came out at 73%; in data set [20] it was 85%. Besides, the AUC is 45.9 µM·h in [16] and 9 µM·h in [21]. Further, the inhibition in vivo at 5 mg/kg in data set [17] is 57.5%; in the data set on Mus musculus [23] it was 48%. For the same molecule, the fVdss in data set [18] stood at 2.2 L/kg.
